Data taken from the NIST ThermoML archive (doi:10.1021/je700021f).

Legend:
[1] = 101 kPa, Liquid, Pulse-echo method
[2] = xn = mol fraction of the nth substance listed; settings: 101 kPa, Liquid, Pulse-echo method, x1 = 1

CCCCCCCCC [nonane]
[1]
Settings | speed of sound [m/s]
293.15 K | 1227.3
298.15 K | 1207.2
303.15 K | 1187.2
308.15 K | 1167.3
313.15 K | 1147.5
318.15 K | 1127.8
323.15 K | 1108.2
328.15 K | 1088.7
333.15 K | 1069.3
338.15 K | 1050
343.15 K | 1030.8
348.15 K | 1011.8
353.15 K | 992.8
358.15 K | 973.9
363.15 K | 955.2
368.15 K | 936.5
373.15 K | 917.9
378.15 K | 899.5
383.15 K | 881.1
388.15 K | 862.9
393.15 K | 844.7
398.15 K | 826.7
403.15 K | 808.8
408.15 K | 790.9
413.15 K | 773.2
418.15 K | 755.6
423.15 K | 738

CCCCCCCCC [nonane] + CCCCCCCCCCl
[2]
Settings | speed of sound [m/s]
293.15 K | 1227.3
298.15 K | 1207.2
303.15 K | 1187.2
308.15 K | 1167.3
313.15 K | 1147.5
318.15 K | 1127.8
323.15 K | 1108.2
328.15 K | 1088.7
333.15 K | 1069.3
338.15 K | 1050
343.15 K | 1030.8
348.15 K | 1011.8
353.15 K | 992.8
358.15 K | 973.9
363.15 K | 955.2
368.15 K | 936.5
373.15 K | 917.9
378.15 K | 899.5
383.15 K | 881.1
388.15 K | 862.9
393.15 K | 844.7
398.15 K | 826.7
403.15 K | 808.8
408.15 K | 790.9
413.15 K | 773.2
418.15 K | 755.6
423.15 K | 738

CCCCCCCCCCl [1-chlorononane]
[1]
Settings | speed of sound [m/s]
293.15 K | 1297.2
298.15 K | 1278.2
303.15 K | 1259.5
308.15 K | 1240.9
313.15 K | 1222.5
318.15 K | 1204.3
323.15 K | 1186.3
328.15 K | 1168.4
333.15 K | 1150.7
338.15 K | 1133.2
343.15 K | 1115.9
348.15 K | 1098.8
353.15 K | 1081.9
358.15 K | 1065.1
363.15 K | 1048.5
368.15 K | 1032.2
373.15 K | 1015.9
378.15 K | 999.1
383.15 K | 982.7
388.15 K | 966.4
393.15 K | 950.3
398.15 K | 934.3
403.15 K | 918.4
408.15 K | 902.6
413.15 K | 887
418.15 K | 871.4
423.15 K | 856
